ChEMBL document CHEMBL5241075, “Advancement of chimeric hybrid drugs to cure malaria infection: An overview with special emphasis on endoperoxide pharmacophores” (Eur J Med Chem, 2021)

What was measured:
Plasmodium falciparum [1] = test: Antiplasmodial activity against Plasmodium falciparum 3D7; type: functional, organism-based
Plasmodium falciparum [2] = test: Antiplasmodial activity against Plasmodium falciparum W2; type: functional, organism-based
[3] = Inhibition of Plasmodium falciparum falcipain-2
Plasmodium falciparum [4] = test: Antiplasmodial activity against chloroquine resistant Plasmodium falciparum by HRP2 ELISA analysis; type: functional, organism-based
Plasmodium falciparum [5] = test: Antiplasmodial activity against Plasmodium falciparum NF54; type: functional, organism-based
Plasmodium falciparum [6] = test: Antimalarial activity against erythrocytic stage chloroquine sensitive Plasmodium falciparum W2 infected in mouse assessed as reduction in parasitemia at 4 mg/kg/day, po qd measured after 4 days by Giemsa staining based analysis relative to control; type: functional; parameters: scale not given: the % may be the effect or the level left; conditions: time 4 day
Plasmodium falciparum [7] = test: Antimalarial activity against erythrocytic stage chloroquine sensitive Plasmodium falciparum W2 infected in mouse assessed as reduction in parasitemia at 54 mg/kg/day, po qd measured after 4 days by Giemsa staining based analysis relative to control; type: functional; parameters: scale not given: the % may be the effect or the level left; conditions: time 4 day
Plasmodium vinckei = test: Antimalarial activity against chloroquine resistant Plasmodium vinckei infected in po dosed swiss mouse assessed as reduction in parasitemia; type: functional
Plasmodium falciparum [8] = test: Antimalarial activity against erythrocytic stage chloroquine sensitive Plasmodium falciparum 3D7 infected in mouse assessed as reduction in parasitemia at 4 mg/kg/day, po qd measured after 4 days by Giemsa staining based analysis relative to control; type: functional; parameters: scale not given: the % may be the effect or the level left; conditions: time 4 day
Plasmodium falciparum [9] = test: Antiplasmodial activity against Plasmodium falciparum gametocytes assessed as inhibition of gametocyte activation by [3H]hypoxanthine incorporation assay; type: functional, organism-based
[10] = tested on: Plasmodium vinckei petteri; test: Antimalarial activity against chloroquine sensitive Plasmodium vinckei petteri infected in po dosed swiss mouse assessed as reduction in parasitemia; type: functional
Plasmodium falciparum [11] = test: Antiplasmodial activity against Plasmodium falciparum TM91C235; type: functional, organism-based
Plasmodium falciparum [12] = test: Antimalarial activity against erythrocytic stage chloroquine sensitive Plasmodium falciparum 3D7 infected in mouse assessed as reduction in parasitemia at 43 mg/kg/day, po qd measured after 4 days by Giemsa staining based analysis relative to control; type: functional; parameters: scale not given: the % may be the effect or the level left; conditions: time 4 day
Plasmodium falciparum [13] = test: Antimalarial activity against erythrocytic stage chloroquine sensitive Plasmodium falciparum 3D7 infected in mouse assessed as reduction in parasitemia at 15 mg/kg/day, po qd measured after 4 days by Giemsa staining based analysis relative to control; type: functional; parameters: scale not given: the % may be the effect or the level left; conditions: time 4 day
HeLa = test: Antiproliferative activity against human HeLa cells assessed as cell growth inhibition; type: functional, cell-based; conditions: Homo sapiens, HeLa
Hemozoin = test: Inhibition of Beta-hematin in Plasmodium falciparum
Plasmodium falciparum [14] = test: Antimalarial activity against erythrocytic stage chloroquine sensitive Plasmodium falciparum W2 infected in mouse assessed as reduction in parasitemia at 43 mg/kg/day, po qd measured after 4 days by Giemsa staining based analysis relative to control; type: functional; parameters: scale not given: the % may be the effect or the level left; conditions: time 4 day
[15] = tested on: Plasmodium yoelii nigeriensis; test: Antiplasmodial activity against Plasmodium yoelii nigeriensis infected in sc dosed mouse assessed as reduction in parasitemia; type: functional

`CC(C)CN(NC(=O)C1CCC2(CC1)OOC1(OO2)C2CC3CC(C2)CC1C3)c1nc(C#N)ncc1Cl` (stereo not drawn) showed an IC50 (Plasmodium falciparum [1]) of 9.8 nM, an IC50 (Plasmodium falciparum [2]) of 9.8 nM and an IC50 [3] of 3.4 nM.
For `C[C@H]1[C@H](OC(=O)CCC(=O)O)O[C@@H]2O[C@@]3(C)CC[C@H]4[C@H](C)CC[C@@H]1[C@@]24OO3` [ARTESUNATE], the IC50 (Plasmodium falciparum [4]) was 2.34 nM, the IC90 (Plasmodium falciparum [4]) was 6.46 nM and the IC99 (Plasmodium falciparum [4]) was 0.0195 µM. The IC50 (Plasmodium falciparum [5]) was < 5.2 nM, the Activity (Plasmodium falciparum [6]) was 89% and the Activity (Plasmodium falciparum [7]) was 100%. The ED100 (Plasmodium vinckei) was 100 mg/kg/day, the Activity (Plasmodium falciparum [8]) was 28% and the IC50 (Plasmodium falciparum [9]) was 300000 nM. For the same compound, the ED100 [10] was 32 mg/kg/day.
Work on `CCN(CC)CCCC(C)Nc1ccnc2cc(Cl)ccc12` (stereo not drawn) [CHLOROQUINE] yielded an IC90 (Plasmodium falciparum [11]) of 153 nM, an Activity (Plasmodium falciparum [12]) of 100% and an IC90 (Plasmodium falciparum [4]) of 301 nM. For the same compound, the IC99 (Plasmodium falciparum [4]) was 0.531 µM, the IC90 (Plasmodium falciparum [2]) was 18.6 nM and the Activity (Plasmodium falciparum [13]) was 100%. It also gave an IC50 (HeLa) of 8540 nM, an IC50 (Hemozoin) of 1.91 equiv and an Activity (Plasmodium falciparum [14]) of 15%. The ED100 (Plasmodium vinckei) was >100 mg/kg/day, the CD50 [15] was 7 mg/kg/day and the CD90 [15] was 23 mg/kg/day. It also gave an ED50 ([15]; Plasmodium yoelii) of 5 mg/kg/day, an ED90 ([15]; Plasmodium yoelii) of 23 mg/kg/day and an ED100 [10] of 16 mg/kg/day.
